What was measured:
human PLA2 IB enzyme = human PLA2 IB enzyme (Homo sapiens, UniProt P04054); conditions: versus the human PLA2 IB enzyme; cited from earlier work
[1] = molecular target: T1, porcine group 1B PLA2 (pps PLA2) (Sus scrofa, UniProt P00592); assay: Fluorimetric PPyrPM assay for group 1B PLA2 inhibition (Example 12); type: biochemical; conditions: porcine pancreas secreted PLA2; read-out: ILYPSA IC50 pps PLA2
T1 construct: purchased
Outline: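 Porcine group 1B PLA2 hydrolysis of 4.2 uM PPyrPM vesicle solution (pre-mixing concentration) in 50 mM Tris-HCl pH 8.0, 50 mM KCl, 1 mM CaCl2 with BSA; inhibitors in 8-point threefold series from 15 uM. After 3 min at 37 °C, fluorescence read at ex 342/em 395 nm; duplicate IC50 by four-parameter fit.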

[2] = molecular target: T2, human group 1B PLA2 (hps PLA2) (Homo sapiens, UniProt P04054); assay: as above; type: biochemical; conditions: human pancreas secreted PLA2; read-out: ILYPSA IC50 hps PLA2
T2 construct: made in house; host or cells: E. coli

[3] = molecular target: T3, mouse group 1B PLA2 (mps PLA2) (Mus musculus, UniProt Q9Z0Y2); assay: as above; type: biochemical; conditions: mouse pancreas secreted PLA2; read-out: ILYPSA IC50 mps PLA2
T3 construct: made in house; host or cells: E. coli
T3 sequence (Q9Z0Y2 23-146): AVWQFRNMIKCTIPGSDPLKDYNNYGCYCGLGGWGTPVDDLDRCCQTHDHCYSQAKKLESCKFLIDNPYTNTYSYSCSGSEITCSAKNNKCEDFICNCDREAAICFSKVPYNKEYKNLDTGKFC

T1 sequence (P00592 23-146): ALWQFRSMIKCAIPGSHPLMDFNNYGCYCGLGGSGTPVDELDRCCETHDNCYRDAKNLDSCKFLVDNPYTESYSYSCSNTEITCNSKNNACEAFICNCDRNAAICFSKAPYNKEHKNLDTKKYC
human PLA2 IB enzyme, sequence (P04054 23-148): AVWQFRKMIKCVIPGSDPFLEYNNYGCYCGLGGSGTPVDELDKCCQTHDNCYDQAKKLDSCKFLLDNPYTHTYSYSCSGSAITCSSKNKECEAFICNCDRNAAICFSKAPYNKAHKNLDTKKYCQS
T2 sequence (P04054 23-148): as above

SMILES	IC50 (human PLA2 IB enzyme)	IC50 [1]	IC50 [2]	IC50 [3]
Cc1c(C(=O)C(N)=O)c2c(OCC(=O)O)cccc2n1Cc1ccccc1-c1ccccc1 [ILY-4001, 2-(3-(2-amino-2-oxoacetyl)-1-(biphenyl-2-ylmethyl)-2-methyl-1H-indol-4-yloxy)acetic acid]	~200 nM			
Cc1c(C(=O)C(N)=O)c2c(OCC(=O)O)cccc2n1CCCCCCCCSCCCCCCCCSCCCCCCCCn1c(C)c(C(=O)C(N)=O)c2c(OCC(=O)O)cccc21 [ILY-V-24, 2,2′-(1,1′-(8,8′-(Octane-1,8-diylbis(sulfanediyl))bis(octane-8,1-diyl))bis(3-(2-amino-2-oxoacetyl)-2-methyl-1H-indole-4,1-diyl))bis(oxy)diacetic acid]		800 nM	540 nM	1050 nM

Reference: US20070135383A1, “Phospholipase inhibitors, including multi-valent phospholipase inhibitors, and use thereof, including as lumen-localized phospholipase inhibitors” (priority 2005, published 2007)
